For one experiment, the target named is T1, DDR1 (Homo sapiens, UniProt Q08345).
T1 construct: purchased Carna Biosciences
The experiment in a line: LanthaScreen Europium Kinase Binding assay, DDR1. A digest of the protocol: (§1)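 Compounds were incubated 1 h at rt with 5 nM DDR1 plus 20 nM Kinase Tracer 178, or 5 nM DDR2 plus 10 nM tracer, and 2 nM Eu anti-GST antibody in HEPES pH 7.5 buffer. Read-out was the TR-FRET 665/615 nm ratio. IC50 came from a 4-parameter fit and was converted to Ki by Cheng-Prusoff.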
A general note: In TR-FRET formats the signal depends on donor and acceptor labels being close together.

The target in a further experiment is T2, DDR2 (Homo sapiens, UniProt Q16832).
T2 construct: purchased Life Technologies
T2 sequence (Q16832 22-855): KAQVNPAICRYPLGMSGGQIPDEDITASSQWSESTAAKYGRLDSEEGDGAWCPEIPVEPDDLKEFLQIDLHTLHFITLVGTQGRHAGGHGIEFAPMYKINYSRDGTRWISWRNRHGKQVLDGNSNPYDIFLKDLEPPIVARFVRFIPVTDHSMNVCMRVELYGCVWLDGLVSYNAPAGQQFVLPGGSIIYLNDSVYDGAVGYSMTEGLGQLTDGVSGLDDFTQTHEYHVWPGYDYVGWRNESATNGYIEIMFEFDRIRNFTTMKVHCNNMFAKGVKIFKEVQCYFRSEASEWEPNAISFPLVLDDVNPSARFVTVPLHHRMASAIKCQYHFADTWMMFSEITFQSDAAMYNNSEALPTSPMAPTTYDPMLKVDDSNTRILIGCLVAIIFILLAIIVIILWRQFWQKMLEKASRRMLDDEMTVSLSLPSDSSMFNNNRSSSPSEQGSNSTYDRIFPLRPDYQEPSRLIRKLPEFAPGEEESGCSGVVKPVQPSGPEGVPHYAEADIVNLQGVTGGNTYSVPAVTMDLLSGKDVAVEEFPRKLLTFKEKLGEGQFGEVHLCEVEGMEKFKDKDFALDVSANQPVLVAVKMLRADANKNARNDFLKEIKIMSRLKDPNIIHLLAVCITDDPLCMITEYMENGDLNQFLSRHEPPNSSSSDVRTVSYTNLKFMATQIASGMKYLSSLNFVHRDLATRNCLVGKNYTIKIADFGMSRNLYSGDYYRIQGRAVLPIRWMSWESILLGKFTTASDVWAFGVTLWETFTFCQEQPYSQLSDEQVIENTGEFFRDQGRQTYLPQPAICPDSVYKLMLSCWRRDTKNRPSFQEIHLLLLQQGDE
The experiment in a line: LanthaScreen Europium Kinase Binding assay, DDR2. The gist of the method:
as §1

The mark [1] stands for this setting: 5 nM DDR1, 20 nM Kinase Tracer 178, 1 h at rt, Ki from IC50 by Cheng-Prusoff, read-out: Ki DDR1.
The mark [2] stands for this setting: 5 nM DDR2, 10 nM Kinase Tracer 178, 1 h at rt, Ki from IC50 by Cheng-Prusoff, read-out: Ki DDR2.

Read-outs that look alike come from different tables or passages of the source.

T1 sequence (Q08345 19-913): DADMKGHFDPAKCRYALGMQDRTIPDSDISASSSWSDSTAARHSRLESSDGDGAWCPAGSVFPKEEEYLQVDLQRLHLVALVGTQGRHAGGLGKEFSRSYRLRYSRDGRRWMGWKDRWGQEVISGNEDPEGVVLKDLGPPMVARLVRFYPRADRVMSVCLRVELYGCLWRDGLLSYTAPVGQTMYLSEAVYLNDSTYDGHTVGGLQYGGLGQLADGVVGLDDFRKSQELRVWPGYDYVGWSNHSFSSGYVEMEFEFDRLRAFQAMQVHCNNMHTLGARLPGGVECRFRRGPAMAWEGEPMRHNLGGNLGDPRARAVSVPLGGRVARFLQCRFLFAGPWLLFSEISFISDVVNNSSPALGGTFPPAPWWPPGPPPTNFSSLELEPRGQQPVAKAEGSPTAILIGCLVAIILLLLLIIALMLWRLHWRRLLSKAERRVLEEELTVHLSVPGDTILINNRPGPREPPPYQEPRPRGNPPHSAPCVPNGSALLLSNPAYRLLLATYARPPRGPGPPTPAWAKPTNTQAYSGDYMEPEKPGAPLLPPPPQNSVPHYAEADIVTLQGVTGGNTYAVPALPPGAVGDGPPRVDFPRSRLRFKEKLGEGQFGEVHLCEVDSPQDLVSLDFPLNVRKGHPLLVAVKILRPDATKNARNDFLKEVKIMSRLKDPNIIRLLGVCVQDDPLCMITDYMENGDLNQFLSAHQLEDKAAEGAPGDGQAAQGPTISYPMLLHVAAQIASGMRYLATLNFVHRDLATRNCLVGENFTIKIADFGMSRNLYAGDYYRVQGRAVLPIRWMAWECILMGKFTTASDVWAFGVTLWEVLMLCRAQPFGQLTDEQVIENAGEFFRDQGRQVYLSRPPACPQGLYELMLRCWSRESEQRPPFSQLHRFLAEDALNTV

As for `Cc1ccc(C(=O)Nc2cncc(C(F)(F)F)c2)cc1[C@@H]1CCN(c2cccc(C(N)=O)c2)C1` [Example 66, (S)-3-(1-(3-carbamoylphenyl)pyrrolidin-3-yl)-4-methyl-N-(5-(trifluoromethyl)pyridin-3-yl)benzamide], the Ki (usually the dissociation constant of the complex between target and ligand, obtained from inhibition or displacement) at DDR1 (setting [1]) was in the range of 5 to 25 nM; on DDR2 (setting [2]) it was 25 to 100 nM.

In the case of `Cc1ccc(C(=O)Nc2cncc(C(F)(F)F)c2)cc1[C@@H]1CCN(CC(N)=O)C1` [Example C2, (S)-3-(1-(2-amino-2-oxoethyl)pyrrolidin-3-yl)-4-methyl-N-(5-(trifluoromethyl)pyridin-3-yl)benzamide], the Ki at DDR1 (same binding assay, 5 nM DDR1, 20 nM Kinase Tracer 178, read-out: DDR1 Ki) turned out to be 487 nM; on DDR2 (same binding assay, 5 nM DDR2, 10 nM Kinase Tracer 178, read-out: DDR2 Ki), 588 nM.

For `Cc1ccc(C(=O)Nc2cncc(C(F)(F)F)c2)cc1[C@@H]1CCN(c2ncnc3cc(Br)sc23)C1` [Example 125, (S)-3-(1-(6-bromothieno[3,2-d]pyrimidin-4-yl)pyrrolidin-3-yl)-4-methyl-N-(5-(trifluoromethyl)pyridin-3-yl)benzamide], the Ki on DDR1 (setting [1]) and at DDR2 (setting [2]) was 5 to 25 nM in each case.

`Cc1ccc(C(=O)Nc2cc(C(F)(F)F)ncn2)cc1[C@@H]1CCN(c2cncc(C#N)c2)C1` [Example 8, (S)-3-(1-(5-cyanopyridin-3-yl)pyrrolidin-3-yl)-4-methyl-N-(6-(trifluoromethyl)pyrimidin-4-yl)benzamide]: the Ki is below 5 nM on DDR1 (setting [1]) and 5 to 25 nM on DDR2 (setting [2]).

For `Cc1ccc(C(=O)Nc2cncc(C(F)(F)F)c2)cc1[C@@H]1CCN(c2ccnc(C(N)=O)c2)C1` [Example 63, (S)-4-(3-(2-methyl-5-((5-(trifluoromethyl)pyridin-3-yl)carbamoyl)phenyl)pyrrolidin-1-yl)picolinamide], the Ki on DDR1 (setting [1]) and at DDR2 (setting [2]) was below 5 nM throughout.

In the case of `CCc1cc(NC(=O)c2ccc(C)c([C@@H]3CCN(c4cnn5cccnc45)C3)c2)no1` [Example 95, (S)-N-(5-ethylisoxazol-3-yl)-4-methyl-3-(1-(pyrazolo[1,5-a]pyrimidin-3-yl)pyrrolidin-3-yl)benzamide], the Ki at DDR1 (setting [1]) and on DDR2 (setting [2]) was below 5 nM each time.

In the case of `Cc1ccc(C(=O)Nc2cc(OC(F)(F)F)ccn2)cc1[C@@H]1CCN(c2ccnc(C(N)=O)c2)C1` [Example 57, (S)-4-(3-(2-methyl-5-((4-(trifluoromethoxy)pyridin-2-yl)carbamoyl)phenyl)pyrrolidin-1-yl)picolinamide], the inhibition constant (Ki) was below 5 nM on DDR1 (setting [1]) and 5 to 25 nM on DDR2 (setting [2]).

As to `Cc1ccc(C(=O)Nc2cncc(C(F)(F)F)c2)cc1[C@@H]1CCN(c2cncc(C(F)F)c2)C1` [Example 22, (S)-3-(1-(5-(difluoromethyl)pyridin-3-yl)pyrrolidin-3-yl)-4-methyl-N-(5-(trifluoromethyl)pyridin-3-yl)benzamide], the Ki was below 5 nM on DDR1 (setting [1]) and 5 to 25 nM at DDR2 (setting [2]).

On to `COCC(=O)Nc1ccc(OC2CN(c3cc(C(=O)Nc4cncc(C(F)(F)F)c4)ccc3C)C2)cn1` [Example 46, 3-(3-((6-(2-methoxyacetamido)pyridin-3-yl)oxy)azetidin-1-yl)-4-methyl-N-(5-(trifluoromethyl)pyridin-3-yl)benzamide], for which the Ki at DDR1 (setting [1]) fell in the range of 5 to 25 nM; at DDR2 (setting [2]), 25 to 100 nM.

For `CC(=O)Nc1ncc(N2CC[C@@H](c3cc(C(=O)Nc4cncc(C(F)(F)F)c4)ccc3C)C2)cn1` [Example 130, (S)-3-(1-(2-acetamidopyrimidin-5-yl)pyrrolidin-3-yl)-4-methyl-N-(5-(trifluoromethyl)pyridin-3-yl)benzamide], the results for the Ki at DDR1 (setting [1]) and on DDR2 (setting [2]) were below 5 nM and 5 to 25 nM, respectively.

For the compound `Cc1ccc(C(=O)Nc2cncc(C(F)(F)F)c2)cc1[C@@H]1CCN(c2ncnc3cc(C(=O)N4CCOCC4)sc23)C1` [Example 61, (S)-4-methyl-3-(1-(6-(morpholine-4-carbonyl)thieno[3,2-d]pyrimidin-4-yl)pyrrolidin-3-yl)-N-(5-(trifluoromethyl)pyridin-3-yl)benzamide], the results for the Ki on DDR1 (setting [1]) and on DDR2 (setting [2]) were below 5 nM and 5 to 25 nM, respectively.

As to `Cc1ccc(C(=O)Nc2cncc(C(F)(F)F)c2)cc1[C@@H]1CCN(c2cncc(C#N)c2)C1` [Example 27, (S)-3-(1-(5-cyanopyridin-3-yl)pyrrolidin-3-yl)-4-methyl-N-(5-(trifluoromethyl)pyridin-3-yl)benzamide], the Ki at DDR1 (setting [1]) and at DDR2 (setting [2]) was below 5 nM in each case.

`COc1ncc(N2CC[C@@H](c3cc(C(=O)Nc4cncc(C(F)(F)F)c4)ccc3C)C2)cn1` [Example 25, (S)-3-(1-(2-methoxypyrimidin-5-yl)pyrrolidin-3-yl)-4-methyl-N-(5-(trifluoromethyl)pyridin-3-yl)benzamide]: the Ki at DDR1 (setting [1]) is below 5 nM; on DDR2 (setting [2]) it was 5 to 25 nM.

Regarding `Cc1ccc(C(=O)Nc2cncc(C(F)(F)F)c2)cc1[C@@H]1CCN(c2cnc3ccc(C#N)cn23)C1` [Example 78, (S)-3-(1-(6-cyanoimidazo[1,2-a]pyridin-3-yl)pyrrolidin-3-yl)-4-methyl-N-(5-(trifluoromethyl)pyridin-3-yl)benzamide], the Ki on DDR1 (setting [1]) and at DDR2 (setting [2]) was below 5 nM throughout.

Regarding `Cc1ccc(C(=O)Nc2cncc(C(F)(F)F)c2)cc1[C@@H]1CCN(c2cnn3ccc(N4CCN(C)CC4)nc23)C1` [Example 83, (S)-4-methyl-3-(1-(5-(4-methylpiperazin-1-yl)pyrazolo[1,5-a]pyrimidin-3-yl)pyrrolidin-3-yl)-N-(5-(trifluoromethyl)pyridin-3-yl)benzamide], the results for the Ki on DDR1 (setting [1]) and on DDR2 (setting [2]) were below 5 nM and 5 to 25 nM, respectively.

With `Cc1ccc(C(=O)Nc2cncc(C(F)(F)F)c2)cc1[C@@H]1CCN(c2nccn3cncc23)C1` [Example 128, (S)-3-(1-(imidazo[1,5-a]pyrazin-8-yl)pyrrolidin-3-yl)-4-methyl-N-(5-(trifluoromethyl)pyridin-3-yl)benzamide], the Ki on DDR1 (setting [1]) was below 5 nM; at DDR2 (setting [2]), 5 to 25 nM.

With `Cc1ccc(C(=O)c2cncc(C(F)(F)F)c2)cc1[C@@H]1CCN(c2cnc3ccc(CO)cn23)C1` [Example 123, (S)-(3-(1-(6-(hydroxymethyl)imidazo[1,2-a]pyridin-3-yl)pyrrolidin-3-yl)-4-methylphenyl)(5-(trifluoromethyl)pyridin-3-yl)methanone], the Ki at DDR1 (setting [1]) and at DDR2 (setting [2]) was below 5 nM throughout.

`Cc1ccc(C(=O)Nc2cc(C(C)(C)C)no2)cc1[C@@H]1CCN(c2cncnc2)C1` [Example 19, (S)-N-(3-(tert-butyl)isoxazol-5-yl)-4-methyl-3-(1-(pyrimidin-5-yl)pyrrolidin-3-yl)benzamide]: the Ki at DDR1 (setting [1]) and at DDR2 (setting [2]) was below 5 nM throughout.

For `Cc1ccc(C(=O)Nc2cncc(C(F)(F)F)c2)cc1[C@@H]1CCN(c2cnc3ccc(N4CCN(C)CC4)nn23)C1` [Example 80, (S)-4-methyl-3-(1-(6-(4-methylpiperazin-1-yl)imidazo[1,2-b]pyridazin-3-yl)pyrrolidin-3-yl)-N-(5-(trifluoromethyl)pyridin-3-yl)benzamide], the Ki on DDR1 (setting [1]) and on DDR2 (setting [2]) was 5 to 25 nM each time.

As for `Cc1ccc(C(=O)Nc2cc(OC(F)(F)F)ccn2)cc1[C@@H]1CCN(c2cncc(C(N)=O)c2)C1` [Example 9, (S)-5-(3-(2-methyl-5-((4-(trifluoromethoxy)pyridin-2-yl)carbamoyl)phenyl)pyrrolidin-1-yl)nicotinamide], the Ki on DDR1 (setting [1]) and at DDR2 (setting [2]) was below 5 nM in each case.

For the compound `Cc1ccc(C(=O)Nc2cc(C(C)(C)C(F)(F)F)on2)cc1[C@@H]1CCN(c2cncnc2)C1` [Example 14, (S)-4-methyl-3-(1-(pyrimidin-5-yl)pyrrolidin-3-yl)-N-(5-(1,1,1-trifluoro-2-methylpropan-2-yl)isoxazol-3-yl)benzamide], the Ki on DDR1 (setting [1]) and at DDR2 (setting [2]) was below 5 nM each time.

Regarding `Cc1ccc(C(=O)Nc2cncc(C(F)(F)F)c2)cc1[C@@H]1CCN(c2cnn3cccnc23)C1` [Example 35, (S)-4-methyl-3-(1-(pyrazolo[1,5-a]pyrimidin-3-yl)pyrrolidin-3-yl)-N-(5-(trifluoromethyl)pyridin-3-yl)benzamide], the Ki at DDR1 (setting [1]) and on DDR2 (setting [2]) was below 5 nM throughout.

Turning to `Cc1ccc(C(=O)Nc2cncc(C(F)(F)F)c2)cc1[C@@H]1CCN(c2cnn3ccncc23)C1` [Example 32, (S)-4-methyl-3-(1-(pyrazolo[1,5-a]pyrazin-3-yl)pyrrolidin-3-yl)-N-(5-(trifluoromethyl)pyridin-3-yl)benzamide], the Ki on DDR1 (setting [1]) and at DDR2 (setting [2]) was below 5 nM each time.

The record behind these values is patent publication US20260242353A1, “HETEROARYL DERIVATIVES AS DDRs INHIBITORS” (CHIESI FARMACEUTICI S.P.A., priority 2022, published 2026).
